Reference: ChEMBL document CHEMBL1150243, “Lignan glycosides from Neoalsomitra integrifoliola” (2008)

Test: Antiinflammatory activity against rat polymorphonuclear leucocytes assessed as inhibition of platelet activating factor-induced beta-glucuronidase release
Assay type: functional

Which “inhibition (INH)” value does the source give for C[C@@H]1C(=O)O[C@H]2[C@H](O)[C@@]34[C@H]5C[C@@H](C(C)(C)C)[C@]36[C@@H](OC(=O)[C@@H]6O)O[C@@]4(C(=O)O5)[C@@]12O [GINKOLIDE B] here?
Its value is 78.4%.
